Laboratory results published in ChEMBL document CHEMBL4507259 (2021).

Assays:
[1] = target: Cannabinoid receptor 2 (Homo sapiens) (UniProt P34972); test: CB2 (h) CEREP ligand profiling; details: filed as agonist, Compound concentration 10.0 uM
[2] = target: Mu-type opioid receptor (Homo sapiens) (UniProt P35372); test: mu (MOP) (h) CEREP ligand profiling; details: filed as agonist, Compound concentration 10.0 uM
[3] = target: Adenosine receptor A2a (Homo sapiens) (UniProt P29274); test: A2A (h) CEREP ligand profiling; details: filed as agonist, Compound concentration 10.0 uM
[4] = test system: Tyrosine-protein kinase ABL1 (Homo sapiens), P00519 [F317L]; details: Compound concentration 1000.0 nM
[5] = target: Activin receptor type-2B (Homo sapiens) (UniProt Q13705); details: Compound concentration 1000.0 nM
[6] = target: Ankyrin repeat and protein kinase domain-containing protein 1 (Homo sapiens) (UniProt Q8NFD2); details: Compound concentration 1000.0 nM
[7] = target: NUAK family SNF1-like kinase 1 (Homo sapiens) (UniProt O60285); details: Compound concentration 1000.0 nM
[8] = target: Protein-tyrosine kinase 6 (Homo sapiens) (UniProt Q13882); details: Compound concentration 1000.0 nM
[9] = target: Casein kinase I isoform alpha-like (Homo sapiens) (UniProt Q8N752); details: Compound concentration 1000.0 nM
[10] = target: Death-associated protein kinase 3 (Homo sapiens) (UniProt O43293); details: Compound concentration 1000.0 nM
[11] = test system: Epidermal growth factor receptor (Homo sapiens), P00533 [UNDEFINED MUTATION]; details: Compound concentration 1000.0 nM
[12] = target: Mitogen-activated protein kinase 7 (Homo sapiens) (UniProt Q13164); details: Compound concentration 1000.0 nM
[13] = target: Vascular endothelial growth factor receptor 1 (Homo sapiens) (UniProt P17948); details: Compound concentration 1000.0 nM
[14] = target: Glycogen synthase kinase-3 beta (Homo sapiens) (UniProt P49841); details: Compound concentration 1000.0 nM
[15] = target: Homeodomain-interacting protein kinase 3 (Homo sapiens) (UniProt Q9H422); details: Compound concentration 1000.0 nM
[16] = target: Serine/threonine-protein kinase ICK (Homo sapiens) (UniProt Q9UPZ9); details: Compound concentration 1000.0 nM
[17] = target: LIM domain kinase 1 (Homo sapiens) (UniProt P53667); details: Compound concentration 1000.0 nM
[18] = target: Tyrosine-protein kinase Mer (Homo sapiens) (UniProt Q12866); details: Compound concentration 1000.0 nM
[19] = target: Macrophage-stimulating protein receptor (Homo sapiens) (UniProt Q04912); details: Compound concentration 1000.0 nM
[20] = target: Cyclin-dependent kinase 16 (Homo sapiens) (UniProt Q00536); details: Compound concentration 1000.0 nM
[21] = target: Platelet-derived growth factor receptor beta (Homo sapiens) (UniProt P09619); details: Compound concentration 1000.0 nM
[22] = test system: Phosphatidylinositol 4,5-bisphosphate 3-kinase catalytic subunit alpha isoform (Homo sapiens), P42336 [H1047L]; details: Compound concentration 1000.0 nM
[23] = target: Serine/threonine-protein kinase D2 (Homo sapiens) (UniProt Q9BZL6); details: Compound concentration 1000.0 nM
[24] = target: Serine/threonine-protein kinase SIK3 (Homo sapiens) (UniProt Q9Y2K2); details: Compound concentration 1000.0 nM
[25] = target: Serine/threonine-protein kinase SIK1 (Homo sapiens) (UniProt P57059); details: Compound concentration 1000.0 nM
[26] = target: Serine/threonine-protein kinase ULK3 (Homo sapiens) (UniProt Q6PHR2); details: Compound concentration 1000.0 nM
[27] = target: Wee1-like protein kinase 2 (Homo sapiens) (UniProt P0C1S8); details: Compound concentration 1000.0 nM
[28] = target: Tyrosine-protein kinase Yes (Homo sapiens) (UniProt P07947); details: Compound concentration 1000.0 nM
[29] = target: 5-hydroxytryptamine receptor 1B (Homo sapiens) (UniProt P28222); details: Compound concentration 10.0 uM
[30] = target: 5-hydroxytryptamine receptor 2B (Homo sapiens, UniProt P41595); details: Compound concentration 10.0 uM
[31] = target: T1, Alpha-2A adrenergic receptor (Homo sapiens) (UniProt P08913); details: Compound concentration 10.0 uM
T1 sequence (whole entry): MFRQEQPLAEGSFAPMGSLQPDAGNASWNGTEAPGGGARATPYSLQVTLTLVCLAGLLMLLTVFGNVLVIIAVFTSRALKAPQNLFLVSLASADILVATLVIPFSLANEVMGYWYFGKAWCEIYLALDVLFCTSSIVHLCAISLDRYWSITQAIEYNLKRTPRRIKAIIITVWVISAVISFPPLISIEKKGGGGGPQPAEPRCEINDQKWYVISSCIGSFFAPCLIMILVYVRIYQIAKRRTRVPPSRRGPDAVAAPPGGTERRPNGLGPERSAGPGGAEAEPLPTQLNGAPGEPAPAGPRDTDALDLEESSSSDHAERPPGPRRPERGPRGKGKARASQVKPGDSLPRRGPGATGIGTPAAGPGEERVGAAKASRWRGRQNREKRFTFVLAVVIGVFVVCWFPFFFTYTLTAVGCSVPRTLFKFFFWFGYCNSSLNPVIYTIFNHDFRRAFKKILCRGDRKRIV

[32] = target: T2, Muscarinic acetylcholine receptor M5 (Homo sapiens) (UniProt P08912); details: Compound concentration 10.0 uM
T2 sequence (whole entry): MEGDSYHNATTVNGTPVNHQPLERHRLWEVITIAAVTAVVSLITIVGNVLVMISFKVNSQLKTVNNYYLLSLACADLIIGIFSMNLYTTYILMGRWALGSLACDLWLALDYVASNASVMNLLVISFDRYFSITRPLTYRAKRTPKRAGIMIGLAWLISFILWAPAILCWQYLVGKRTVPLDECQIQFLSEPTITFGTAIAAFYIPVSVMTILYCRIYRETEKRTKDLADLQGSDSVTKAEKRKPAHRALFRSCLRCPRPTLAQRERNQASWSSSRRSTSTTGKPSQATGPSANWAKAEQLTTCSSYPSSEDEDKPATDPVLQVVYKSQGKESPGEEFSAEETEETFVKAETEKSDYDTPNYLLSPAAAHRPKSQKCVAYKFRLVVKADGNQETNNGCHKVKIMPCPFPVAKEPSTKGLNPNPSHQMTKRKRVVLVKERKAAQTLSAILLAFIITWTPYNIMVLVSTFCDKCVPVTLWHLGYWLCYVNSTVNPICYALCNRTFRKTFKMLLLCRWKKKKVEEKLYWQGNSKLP

Mitogen-activated protein kinase 7 (Homo sapiens), sequence (Q13164 2-816 limits assumed): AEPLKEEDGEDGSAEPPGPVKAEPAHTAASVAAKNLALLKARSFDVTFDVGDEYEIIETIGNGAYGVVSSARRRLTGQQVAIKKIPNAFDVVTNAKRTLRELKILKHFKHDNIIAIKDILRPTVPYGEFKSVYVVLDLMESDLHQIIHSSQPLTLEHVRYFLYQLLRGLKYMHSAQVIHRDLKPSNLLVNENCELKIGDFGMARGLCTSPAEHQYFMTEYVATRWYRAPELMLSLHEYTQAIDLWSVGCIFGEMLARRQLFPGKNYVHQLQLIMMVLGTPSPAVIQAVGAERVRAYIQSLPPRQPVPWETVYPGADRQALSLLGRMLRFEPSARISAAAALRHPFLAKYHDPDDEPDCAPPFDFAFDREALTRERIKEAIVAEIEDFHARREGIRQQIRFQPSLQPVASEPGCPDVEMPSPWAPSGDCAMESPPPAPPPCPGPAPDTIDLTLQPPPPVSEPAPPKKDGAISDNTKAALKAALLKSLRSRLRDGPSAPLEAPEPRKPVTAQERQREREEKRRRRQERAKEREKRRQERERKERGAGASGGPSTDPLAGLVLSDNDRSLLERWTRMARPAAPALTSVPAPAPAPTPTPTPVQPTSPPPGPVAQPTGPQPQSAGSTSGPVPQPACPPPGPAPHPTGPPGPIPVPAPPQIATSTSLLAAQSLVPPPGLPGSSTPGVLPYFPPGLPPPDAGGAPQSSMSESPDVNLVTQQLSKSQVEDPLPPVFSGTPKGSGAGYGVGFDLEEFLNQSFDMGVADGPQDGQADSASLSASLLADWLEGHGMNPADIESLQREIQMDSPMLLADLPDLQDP
Serine/threonine-protein kinase ULK3 (Homo sapiens), sequence (Q6PHR2 whole entry): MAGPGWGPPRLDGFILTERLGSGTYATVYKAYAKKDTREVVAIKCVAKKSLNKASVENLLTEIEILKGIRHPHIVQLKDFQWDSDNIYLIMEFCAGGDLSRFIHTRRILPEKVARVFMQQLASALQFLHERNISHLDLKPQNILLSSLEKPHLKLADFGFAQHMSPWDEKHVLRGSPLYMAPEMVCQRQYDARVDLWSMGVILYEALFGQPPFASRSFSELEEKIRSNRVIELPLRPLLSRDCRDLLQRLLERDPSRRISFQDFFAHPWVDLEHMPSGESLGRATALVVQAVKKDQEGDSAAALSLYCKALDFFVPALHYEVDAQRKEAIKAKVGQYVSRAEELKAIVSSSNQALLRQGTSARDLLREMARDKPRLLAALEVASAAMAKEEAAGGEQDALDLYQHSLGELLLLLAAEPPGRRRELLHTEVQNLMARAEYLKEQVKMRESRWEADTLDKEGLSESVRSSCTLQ
Phosphatidylinositol 4,5-bisphosphate 3-kinase catalytic subunit alpha isoform (Homo sapiens), P42336 [H1047L], sequence (P42336 whole entry H1047L, canonical isoform): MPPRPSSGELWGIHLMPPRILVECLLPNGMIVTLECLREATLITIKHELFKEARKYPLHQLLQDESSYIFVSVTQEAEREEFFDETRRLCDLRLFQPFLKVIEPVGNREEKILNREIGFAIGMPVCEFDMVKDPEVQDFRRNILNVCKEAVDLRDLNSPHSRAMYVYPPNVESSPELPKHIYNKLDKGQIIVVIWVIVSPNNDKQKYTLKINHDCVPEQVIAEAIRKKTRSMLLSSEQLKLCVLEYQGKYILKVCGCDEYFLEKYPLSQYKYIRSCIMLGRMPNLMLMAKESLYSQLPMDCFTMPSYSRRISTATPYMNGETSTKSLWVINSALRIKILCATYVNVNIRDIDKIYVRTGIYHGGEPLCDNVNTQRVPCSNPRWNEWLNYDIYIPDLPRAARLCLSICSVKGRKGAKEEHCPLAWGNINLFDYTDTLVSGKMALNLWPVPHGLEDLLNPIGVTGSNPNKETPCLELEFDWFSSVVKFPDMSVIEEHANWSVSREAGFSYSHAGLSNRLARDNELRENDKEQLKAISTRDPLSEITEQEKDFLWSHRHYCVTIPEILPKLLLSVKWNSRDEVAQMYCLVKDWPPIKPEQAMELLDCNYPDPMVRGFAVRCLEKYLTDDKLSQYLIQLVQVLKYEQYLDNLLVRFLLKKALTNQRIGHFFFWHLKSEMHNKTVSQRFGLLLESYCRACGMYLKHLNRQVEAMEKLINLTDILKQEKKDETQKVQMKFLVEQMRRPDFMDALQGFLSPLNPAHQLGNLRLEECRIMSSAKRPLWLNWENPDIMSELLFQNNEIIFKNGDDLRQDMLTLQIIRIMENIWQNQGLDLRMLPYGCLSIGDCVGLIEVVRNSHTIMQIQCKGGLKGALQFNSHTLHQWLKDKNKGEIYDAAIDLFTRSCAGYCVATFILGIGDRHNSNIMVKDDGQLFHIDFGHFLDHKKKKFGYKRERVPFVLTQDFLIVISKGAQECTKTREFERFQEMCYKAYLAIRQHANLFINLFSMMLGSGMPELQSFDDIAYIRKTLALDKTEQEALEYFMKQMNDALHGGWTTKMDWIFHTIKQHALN
Tyrosine-protein kinase Mer (Homo sapiens), sequence (Q12866 whole entry): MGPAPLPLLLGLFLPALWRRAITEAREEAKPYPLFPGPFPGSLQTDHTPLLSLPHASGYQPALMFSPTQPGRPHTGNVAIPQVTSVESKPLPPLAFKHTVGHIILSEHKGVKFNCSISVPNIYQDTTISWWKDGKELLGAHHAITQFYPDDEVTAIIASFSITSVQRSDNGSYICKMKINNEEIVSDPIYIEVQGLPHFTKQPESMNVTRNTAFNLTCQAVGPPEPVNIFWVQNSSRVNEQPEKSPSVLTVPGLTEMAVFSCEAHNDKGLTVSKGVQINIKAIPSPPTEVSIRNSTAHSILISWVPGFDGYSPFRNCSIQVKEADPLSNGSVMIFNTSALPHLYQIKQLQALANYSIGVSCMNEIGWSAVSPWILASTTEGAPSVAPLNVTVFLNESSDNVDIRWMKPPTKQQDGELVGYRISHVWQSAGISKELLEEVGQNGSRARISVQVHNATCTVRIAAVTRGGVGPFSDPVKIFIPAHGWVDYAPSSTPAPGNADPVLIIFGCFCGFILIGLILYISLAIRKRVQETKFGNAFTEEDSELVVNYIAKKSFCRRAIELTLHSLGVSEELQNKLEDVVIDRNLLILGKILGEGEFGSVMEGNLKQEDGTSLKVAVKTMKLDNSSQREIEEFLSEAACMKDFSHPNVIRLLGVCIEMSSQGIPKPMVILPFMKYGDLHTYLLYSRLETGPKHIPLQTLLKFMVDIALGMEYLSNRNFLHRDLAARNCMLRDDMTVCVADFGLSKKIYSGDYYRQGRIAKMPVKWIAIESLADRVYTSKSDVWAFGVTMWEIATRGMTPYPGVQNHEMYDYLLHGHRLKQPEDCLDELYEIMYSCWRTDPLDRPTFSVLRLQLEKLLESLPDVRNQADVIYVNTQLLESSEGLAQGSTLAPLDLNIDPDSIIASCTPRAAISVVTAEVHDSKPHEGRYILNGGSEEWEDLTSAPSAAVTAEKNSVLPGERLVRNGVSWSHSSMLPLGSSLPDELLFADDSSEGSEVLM
Tyrosine-protein kinase Yes (Homo sapiens), sequence (P07947 2-543 limits assumed): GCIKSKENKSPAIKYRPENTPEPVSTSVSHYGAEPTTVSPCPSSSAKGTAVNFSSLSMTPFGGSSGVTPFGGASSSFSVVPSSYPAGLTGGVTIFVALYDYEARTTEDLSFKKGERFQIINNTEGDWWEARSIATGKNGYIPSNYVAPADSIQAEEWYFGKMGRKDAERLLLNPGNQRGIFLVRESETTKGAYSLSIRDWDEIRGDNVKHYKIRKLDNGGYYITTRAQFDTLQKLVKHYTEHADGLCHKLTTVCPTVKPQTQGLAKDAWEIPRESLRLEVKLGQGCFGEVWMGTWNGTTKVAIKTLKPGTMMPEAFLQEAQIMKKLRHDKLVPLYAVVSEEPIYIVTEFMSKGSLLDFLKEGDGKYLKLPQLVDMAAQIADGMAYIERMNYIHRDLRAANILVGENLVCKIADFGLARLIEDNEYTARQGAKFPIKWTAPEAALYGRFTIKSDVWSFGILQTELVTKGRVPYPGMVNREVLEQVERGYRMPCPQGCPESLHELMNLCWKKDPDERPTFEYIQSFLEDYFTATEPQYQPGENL
Tyrosine-protein kinase ABL1 (Homo sapiens), P00519 [F317L], sequence (P00519 whole entry F317L): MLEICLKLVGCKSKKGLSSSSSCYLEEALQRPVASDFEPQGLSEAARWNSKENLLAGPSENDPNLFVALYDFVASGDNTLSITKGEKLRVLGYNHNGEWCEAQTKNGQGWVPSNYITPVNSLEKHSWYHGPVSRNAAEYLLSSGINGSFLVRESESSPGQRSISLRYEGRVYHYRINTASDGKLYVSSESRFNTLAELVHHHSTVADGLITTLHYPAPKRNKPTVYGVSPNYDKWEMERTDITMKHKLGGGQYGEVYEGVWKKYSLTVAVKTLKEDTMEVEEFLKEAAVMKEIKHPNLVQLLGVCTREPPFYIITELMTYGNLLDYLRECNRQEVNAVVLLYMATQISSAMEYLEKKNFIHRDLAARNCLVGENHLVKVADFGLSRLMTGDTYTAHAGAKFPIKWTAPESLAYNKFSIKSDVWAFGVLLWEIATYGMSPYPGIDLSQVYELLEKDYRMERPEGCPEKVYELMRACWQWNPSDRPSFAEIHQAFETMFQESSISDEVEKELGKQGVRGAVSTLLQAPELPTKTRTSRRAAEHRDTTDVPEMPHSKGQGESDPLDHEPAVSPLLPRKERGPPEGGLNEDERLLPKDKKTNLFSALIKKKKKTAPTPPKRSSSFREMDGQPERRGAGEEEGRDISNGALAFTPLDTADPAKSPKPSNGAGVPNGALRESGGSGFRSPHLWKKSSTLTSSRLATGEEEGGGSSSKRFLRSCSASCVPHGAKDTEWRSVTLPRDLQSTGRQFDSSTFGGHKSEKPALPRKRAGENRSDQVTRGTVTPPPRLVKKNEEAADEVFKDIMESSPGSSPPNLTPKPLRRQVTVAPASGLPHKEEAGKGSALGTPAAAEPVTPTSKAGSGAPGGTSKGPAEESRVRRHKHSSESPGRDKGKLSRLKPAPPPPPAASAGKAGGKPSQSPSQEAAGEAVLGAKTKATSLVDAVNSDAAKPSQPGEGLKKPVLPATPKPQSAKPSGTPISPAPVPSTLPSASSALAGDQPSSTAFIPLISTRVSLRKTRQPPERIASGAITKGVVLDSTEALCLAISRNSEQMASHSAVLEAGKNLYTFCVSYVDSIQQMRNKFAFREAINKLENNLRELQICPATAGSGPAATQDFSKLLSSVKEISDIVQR

| Structure (SMILES) | inhibition [1] [%] | inhibition [2] [%] | inhibition [3] [%] | residual activity [4] [%] | residual activity [5] [%] | residual activity [6] [%] | residual activity [7] [%] | residual activity [8] [%] | residual activity [9] [%] | residual activity [10] [%] | residual activity [11] [%] | residual activity [12] [%] | residual activity [13] [%] | residual activity [14] [%] | residual activity [15] [%] | residual activity [16] [%] | residual activity [17] [%] | residual activity [18] [%] | residual activity [19] [%] | residual activity [20] [%] | other results |
| --- | --- | --- | --- | --- | --- | --- | --- | --- | --- | --- | --- | --- | --- | --- | --- | --- | --- | --- | --- | --- | --- |
| CNC(=O)Nc1ccc2c(c1)CC[C@@]21OC(=O)N(CC(=O)N(Cc2ccc(F)cc2)[C@@H](C)C(F)(F)F)C1=O [A-485] | 67 | 12 | 7 | 64 | 96 | 81 | 94 | 87 | 88 | 86 | 64 | 60 | 100 | 82 | 73 | 72 | 91 | 82 | 77 | 75 | residual activity [21]: 100%; residual activity [22]: 95%; residual activity [23]: 100%; residual activity [24]: 94%; residual activity [25]: 98%; residual activity [26]: 90%; residual activity [27]: 75%; residual activity [28]: 76%; inhibition [29]: 9.82%; inhibition [30]: 81.4%; inhibition [31]: 3.72%; inhibition [32]: 2.39% |
| CNC(=O)Nc1ccc2c(c1)[C@@]1(CC2)OC(=O)N(CC(=O)N(Cc2ccc(F)cc2)[C@@H](C)C(F)(F)F)C1=O [A-486] | 4 | 7 | -1 | 66 | 100 | 61 | 88 | 90 | 100 | 100 | 85 | 85 | 100 | 95 | 90 | 67 | 87 | 100 | 100 | 83 | residual activity [21]: 87%; residual activity [22]: 96%; residual activity [23]: 100%; residual activity [24]: 100%; residual activity [25]: 90%; residual activity [26]: 55%; residual activity [27]: 100%; residual activity [28]: 85%; inhibition [29]: 11.2%; inhibition [30]: 29.2%; inhibition [31]: -1.4%; inhibition [32]: -2.77% |
